# Earlier results in patent publication US20200353179A1, “Device for Deterring Abuse of Drugs” (EIGHTY EIGHT PHARMA, INC., priority 2017, published 2020).
# Where a name gives a salt, the structure may show the parent alone. Read-outs that look alike come from different tables or passages of the source.
# What was measured:
# [1] = test system: pharmacologic effects of intravenously administered heroin
# [2] = 800 mg daily for up to one week
smiles,measurement,setting,value
O=C1CC[C@@]2(O)[C@H]3Cc4ccc(O)c5c4[C@@]2(CCN3CC2CC2)[C@H]1O5 [naltrexone hydrochloride],duration of blockade of pharmacologic effects of heroin,"[1]; 50 mg naltrexone hydrochloride, 25 mg intravenously administered heroin",≤ 24 hours
same,duration of blockade,[1]; doubling the dose of naltrexone hydrochloride,48 h
same,effect on the subjective effects of intravenously administered opioids,[1]; intravenously administered opioids,"markedly attenuates or completely blocks, reversibly"
same,duration of blockade,[1]; tripling the dose of naltrexone hydrochloride,about 72 hours
same,toxicity in human subjects,[2],no evidence of toxicity
same,signs produced by high doses,"animals; high doses, generally >1,000 mg/kg","salivation, depression/reduced activity, tremors, and convulsions"
same,cause of mortalities in animals,animals; high-dose naltrexone administration,tonic-clonic convulsions and/or respiratory failure
